Results from US9561231B2 (AbbVie Inc., priority 2012, dated 2017).

Tests used:
[1] = biological target: T1, first (BD1: amino acids K57-E168) bromodomain of BRD4 (Homo sapiens, UniProt O60885); experiment: TR-FRET bromodomain binding assay, BRD4 BD1; conditions: TR-FRET assay protocol (A-G, compound concentration range); Ki calculated from IC50, probe Kd and probe concentration; read-out: TR-FRET Binding Ki: BRD4 (BDI_K57-E168)
T1 construct: His-tagged first (BD1: amino acids K57-E168)
Procedure: (§1) A time-resolved fluorescence resonance energy transfer (TR-FRET) assay was used to determine the affinities of compounds of the Examples listed in Table 1 for each bromodomain of BRD4. His-tagged first (BD1: amino acids K57-E168) and second (BD2: amino acids E352-E168) bromodomains of BRD4 were expressed and purified. An Alexa647-labeled BET-inhibitor was used as the fluorescent probe in the assay.
(§2) Compound dilution series were prepared in DMSO via an approximately 3-fold serial dilution from one of the following:
(§3) or 5-fold serial dilution from one of the following:
(§4) Assay method A: 2.5 mM-800 nM
(§5) For Assay methods A, C, D, and F: Compounds were then diluted 6:100 in assay buffer (20 mM Sodium Phosphate, pH 6.0, 50 mM NaCl, 1 mM Ethylenediaminetetraacetic acid, 0.01% Triton X-100, 1 mM DL-Dithiothreitol) to yield 3× working solutions. […] of this solution were added to the assay plate to reach a final volume of 18 μL.
(§6) TR-FRET data were normalized to the means of 24 no-compound controls (“high”) and 8 controls containing 1 μM un-labeled probe (“low”). Percent inhibition was plotted as a function of compound concentration and the data were fit with the 4 parameter logistic equation to obtain IC50s. Inhibition constants (Ki) were calculated from the IC50s, probe Kd and probe concentration. Typical Z′ values were between 0.65 and 0.75.

[2] = biological target: T2, second (BD2: amino acids E352-E168) bromodomain of BRD4 (Homo sapiens, UniProt O60885); experiment: TR-FRET bromodomain binding assay, BRD4 BD2; conditions: TR-FRET assay protocol (A-G, compound concentration range); Ki calculated from IC50, probe Kd and probe concentration; read-out: TR-FRET Binding Ki: BRD4 (BDII_E352-M457)
T2 construct: protocol
Procedure: as §1, §2, §3, §4, §5, §6

Question: Which Ki [1] does the source give for `Cn1nc(-c2ccccc2Oc2ccc(C#N)cc2)ccc1=O` [Example 3, 4-[2-(1-methyl-6-oxo-1,6-dihydropyridazin-3-yl)phenoxy]benzonitrile] here?
Answer: 0.851 µM

Question: What about the Ki [2] of the same molecule?
Answer: 3.43 µM

Question: Which results are given for `Cn1nc(-c2ccccc2OC2CCCC2)ccc1=O` [Example 4, 6-[2-(cyclopentyloxy)phenyl]-2-methylpyridazin-3(2H)-one]?
Answer: Ki [1]: 1.34 µM; Ki [2]: > 4.08 µM

Question: With `Cn1nc(-c2ccccc2Oc2ccccn2)ccc1=O` [Example 6, 2-methyl-6-[2-(pyridin-2-yloxy)phenyl]pyridazin-3(2H)-one] as the molecule, how does the Ki [1] read?
Answer: 4.08 µM

Question: What about the Ki [2] of the same molecule?
Answer: 3.17 µM

Question: How did the Ki [1] turn out when `Cn1nc(-c2ccccc2Oc2ccc(C(F)(F)F)cc2)ccc1=O` [Example 7, 2-methyl-6-{2-[4-(trifluoromethyl)phenoxy]phenyl}pyridazin-3(2H)-one] was run?
Answer: 1.97 µM

Question: And the Ki [2]?
Answer: 10.4 µM

Question: How did the Ki [1] turn out when `Cn1nc(-c2ccccc2Oc2ccc(S(C)(=O)=O)cc2)ccc1=O` [Example 8, 2-methyl-6-{2-[4-(methylsulfonyl)phenoxy]phenyl}pyridazin-3(2H)-one] was run?
Answer: 8.59 µM

Question: And the Ki [2]?
Answer: 17.8 µM

Question: For `Cn1nc(-c2cc([N+](=O)[O-])ccc2Oc2ccccc2)ccc1=O` [Example 9, 2-methyl-6-(5-nitro-2-phenoxyphenyl)pyridazin-3(2H)-one], which Ki [1] is on record?
Answer: 10.5 µM

Question: What about the Ki [2] of the same molecule?
Answer: 9.26 µM

Question: `Cn1nc(-c2cc(C#N)ccc2Oc2ccccc2)ccc1=O` [Example 13, 3-(1-methyl-6-oxo-1,6-dihydropyridazin-3-yl)-4-phenoxybenzonitrile] was tested. Which Ki [1] did it give?
Answer: 13.1 µM

Question: And the Ki [2]?
Answer: 10.2 µM

Question: Which results are given for `Cn1nc(-c2cc(C(=O)O)ccc2Oc2ccccc2)ccc1=O` [Example 15, 3-(1-methyl-6-oxo-1,6-dihydropyridazin-3-yl)-4-phenoxybenzoic acid]?
Answer: Ki [1]: 17.8 µM; Ki [2]: 16.3 µM

Question: `COc1cc(=O)n(C)nc1-c1cccc(NS(C)(=O)=O)c1` [Example 19, N-[3-(4-methoxy-1-methyl-6-oxo-1,6-dihydropyridazin-3-yl)phenyl]methanesulfonamide] was tested. Which Ki [1] did it give?
Answer: 8.85 µM

Question: What about the Ki [2] of the same molecule?
Answer: 8.58 µM

Question: For `COc1cc(=O)n(C)nc1-c1ccccc1Oc1ccc(C#N)cc1` [Example 32, 4-[2-(4-methoxy-1-methyl-6-oxo-1,6-dihydropyridazin-3-yl)phenoxy]benzonitrile], which Ki [1] is on record?
Answer: 5.32 µM

Question: What about the Ki [2] of the same molecule?
Answer: 12.2 µM

Question: Which results are given for `COc1cc(=O)n(C)nc1-c1ccccc1Oc1ccc(F)c(Cl)c1` [Example 34, 6-[2-(3-chloro-4-fluorophenoxy)phenyl]-5-methoxy-2-methylpyridazin-3(2H)-one]?
Answer: Ki [1]: 8.17 µM; Ki [2]: 3.19 µM

Question: Which results are given for `COc1ccc(Oc2ccccc2-c2nn(C)c(=O)cc2OC)cc1` [Example 35, 5-methoxy-6-[2-(4-methoxyphenoxy)phenyl]-2-methylpyridazin-3(2H)-one]?
Answer: Ki [1]: 2.39 µM; Ki [2]: 1.08 µM

Question: How did the Ki [1] turn out when `COc1cc(=O)n(C)nc1-c1ccccc1Oc1cccc(F)c1` [Example 36, 6-[2-(3-fluorophenoxy)phenyl]-5-methoxy-2-methylpyridazin-3(2H)-one] was run?
Answer: 5.06 µM

Question: What about the Ki [2] of the same molecule?
Answer: 4.43 µM

Question: For `COC(=O)COc1cc(=O)n(C)nc1-c1ccccc1Oc1ccccc1` [Example 38, methyl{[1-methyl-6-oxo-3-(2-phenoxyphenyl)-1,6-dihydropyridazin-4-yl]oxy}acetate], which Ki [1] is on record?
Answer: 6.35 µM

Question: And the Ki [2]?
Answer: 6.83 µM

Question: How did the Ki [1] turn out when `COc1cc(=O)n(C)nc1-c1ccccc1OC1CCCCC1` [Example 39, 6-[2-(cyclohexyloxy)phenyl]-5-methoxy-2-methylpyridazin-3(2H)-one] was run?
Answer: 3.54 µM

Question: And the Ki [2]?
Answer: 14.6 µM

Question: How did the Ki [1] turn out when `COc1cc(=O)n(C)nc1-c1ccccc1OCc1ccccn1` [Example 40, 5-methoxy-2-methyl-6-[2-(pyridin-2-ylmethoxy)phenyl]pyridazin-3(2H)-one] was run?
Answer: 9.48 µM

Question: And the Ki [2]?
Answer: 20.1 µM

Question: What does the source list for `COc1cc(=O)n(C)nc1-c1ccccc1OCc1ccc2[nH]ncc2c1` [Example 41, 6-[2-(1H-indazol-5-ylmethoxy)phenyl]-5-methoxy-2-methylpyridazin-3(2H)-one]?
Answer: Ki [1]: > 12.9 µM; Ki [2]: > 20.3 µM

Question: `COc1cc(=O)n(C)nc1-c1ccccc1OCCC1CCCCC1` [Example 42, 6-[2-(2-cyclohexylethoxy)phenyl]-5-methoxy-2-methylpyridazin-3(2H)-one] was tested. Which Ki [1] did it give?
Answer: > 12.6 µM

Question: What about the Ki [2] of the same molecule?
Answer: > 22.2 µM

Question: How did the Ki [1] turn out when `COc1cc(=O)n(C)nc1-c1ccccc1OCC1CCN(C(=O)OC(C)(C)C)CC1` [Example 43, tert-butyl 4-{[2-(4-methoxy-1-methyl-6-oxo-1,6-dihydropyridazin-3-yl)phenoxy]methyl}piperidine-1-carboxylate] was run?
Answer: > 5.82 µM

Question: What about the Ki [2] of the same molecule?
Answer: > 22.2 µM

Question: What does the source list for `COc1cc(=O)n(C)nc1-c1ccccc1OCC1CCNCC1` [Example 44, 5-methoxy-2-methyl-6-[2-(piperidin-4-ylmethoxy)phenyl]pyridazin-3(2H)-one]?
Answer: Ki [1]: 2.71 µM; Ki [2]: 5.11 µM

Question: With `COc1cc(=O)n(C)nc1-c1ccccc1OCc1ccncc1` [Example 45, 5-methoxy-2-methyl-6-[2-(pyridin-4-ylmethoxy)phenyl]pyridazin-3(2H)-one] as the molecule, how does the Ki [1] read?
Answer: > 5.67 µM

Question: What about the Ki [2] of the same molecule?
Answer: > 11.1 µM

Question: For `COc1cc(=O)n(C)nc1-c1ccccc1OCC1CCCC1` [Example 46, 6-[2-(cyclopentylmethoxy)phenyl]-5-methoxy-2-methylpyridazin-3(2H)-one], which Ki [1] is on record?
Answer: 4.39 µM

Question: And the Ki [2]?
Answer: 18 µM

Question: Which Ki [1] does the source give for `COc1cc(=O)n(C)nc1-c1ccccc1OCC1CCOCC1` [Example 47, 5-methoxy-2-methyl-6-[2-(tetrahydro-2H-pyran-4-ylmethoxy)phenyl]pyridazin-3(2H)-one] here?
Answer: 5.28 µM

Question: What about the Ki [2] of the same molecule?
Answer: > 22.2 µM

Question: How did the Ki [1] turn out when `COC(=O)C1CCN(c2cc(=O)n(C)nc2-c2ccccc2Oc2ccccc2)C1` (stereo not drawn) [Example 48, methyl 1-[1-methyl-6-oxo-3-(2-phenoxyphenyl)-1,6-dihydropyridazin-4-yl]pyrrolidine-3-carboxylate] was run?
Answer: 9.44 µM

Question: What about the Ki [2] of the same molecule?
Answer: 1.08 µM

Question: How did the Ki [1] turn out when `CN1CCN(c2cc(=O)n(C)nc2-c2ccccc2Oc2ccccc2)CC1=O` [Example 51, 2-methyl-5-(4-methyl-3-oxopiperazin-1-yl)-6-(2-phenoxyphenyl)pyridazin-3(2H)-one] was run?
Answer: 11.6 µM

Question: What about the Ki [2] of the same molecule?
Answer: 6.6 µM

Question: How did the Ki [1] turn out when `Cn1nc(-c2ccccc2-c2ccccc2)ccc1=O` [Example 52, 6-(biphenyl-2-yl)-2-methylpyridazin-3(2H)-one] was run?
Answer: 9 µM

Question: What about the Ki [2] of the same molecule?
Answer: 10.5 µM

Question: Which results are given for `Cn1nc(-c2ccccc2-c2cccc(C#N)c2)ccc1=O` [Example 53, 2′-(1-methyl-6-oxo-1,6-dihydropyridazin-3-yl)biphenyl-3-carbonitrile]?
Answer: Ki [1]: > 11.5 µM; Ki [2]: > 14.3 µM

Question: How did the Ki [1] turn out when `Cc1ccc(-c2cc(=O)n(C)nc2-c2ccccc2Oc2ccccc2)cc1N` [Example 64, 5-(3-amino-4-methylphenyl)-2-methyl-6-(2-phenoxyphenyl)pyridazin-3(2H)-one] was run?
Answer: 0.448 µM

Question: And the Ki [2]?
Answer: 0.507 µM

Question: With `Cn1nc(-c2ccccc2Oc2ccccc2)c(-c2ccc(C=O)cc2)cc1=O` [Example 65, 4-[1-methyl-6-oxo-3-(2-phenoxyphenyl)-1,6-dihydropyridazin-4-yl]benzaldehyde] as the molecule, how does the Ki [1] read?
Answer: 0.797 µM

Question: And the Ki [2]?
Answer: 0.14 µM

Question: For `Cn1nc(-c2ccccc2Oc2ccccc2)c(-c2ccc(C(O)C3CCCC3)cc2)cc1=O` (stereo not drawn) [Example 74, 5-{4-[cyclopentyl(hydroxy)methyl]phenyl}-2-methyl-6-(2-phenoxyphenyl)pyridazin-3(2H)-one], which Ki [1] is on record?
Answer: 0.632 µM

Question: And the Ki [2]?
Answer: 1.05 µM

Question: For `Cn1nc(-c2ccccc2Oc2ccccc2)c(-c2ccc(C(O)c3ccccc3)cc2)cc1=O` (stereo not drawn) [Example 76, 5-{4-[hydroxy(phenyl)methyl]phenyl}-2-methyl-6-(2-phenoxyphenyl)pyridazin-3(2H)-one], which Ki [1] is on record?
Answer: 0.755 µM

Question: And the Ki [2]?
Answer: 1.28 µM

Question: `C=CCC(O)c1ccc(-c2cc(=O)n(C)nc2-c2ccccc2Oc2ccccc2)cc1` (stereo not drawn) [Example 77, 5-[4-(1-hydroxybut-3-en-1-yl)phenyl]-2-methyl-6-(2-phenoxyphenyl)pyridazin-3(2H)-one] was tested. Which Ki [1] did it give?
Answer: 0.511 µM

Question: What about the Ki [2] of the same molecule?
Answer: 0.38 µM

Question: Which Ki [1] does the source give for `CC(=O)OCc1ccc(-c2cc(=O)n(C)nc2-c2ccccc2Oc2ccccc2)cc1` [Example 80, 4-[1-methyl-6-oxo-3-(2-phenoxyphenyl)-1,6-dihydropyridazin-4-yl]benzyl acetate] here?
Answer: 0.708 µM

Question: And the Ki [2]?
Answer: 0.439 µM

Question: Which Ki [1] does the source give for `CN1CCC(c2cc(=O)n(C)nc2-c2ccccc2Oc2ccccc2)CC1` [Example 88, 2-methyl-5-(1-methylpiperidin-4-yl)-6-(2-phenoxyphenyl)pyridazin-3(2H)-one] here?
Answer: 6.79 µM

Question: Which Ki [2] does the source give for `Cn1cccc1-c1cc(=O)n(C)nc1-c1ccccc1Oc1ccccc1` [Example 194, 2-methyl-5-(1-methyl-1H-pyrrol-2-yl)-6-(2-phenoxyphenyl)pyridazin-3(2H)-one] here?
Answer: 1.43 µM

Question: For `CN(C)C(=O)c1cncc(-c2cc(=O)n(C)nc2-c2ccccc2Oc2ccccc2)c1` [Example 215, N,N-dimethyl-5-[1-methyl-6-oxo-3-(2-phenoxyphenyl)-1,6-dihydropyridazin-4-yl]pyridine-3-carboxamide], which Ki [2] is on record?
Answer: 11.8 µM
